“Also recorded” adds a separate entry of the source.
What was measured:
mice sensitized to TDI = assay: Mouse ear swelling test in mice sensitized to toluene-2,4-diisocyanate (TDI), topical application; assay type: in vivo, BALB/c-mice; conditions: for TDI-induced ear swelling: AWD 12-281 1%, cilomilast 3%, diflorasone 0.05%
Protocol: FIG. 6: Effect of PDE 4 inhibitors on TDI induced ear swelling in mice. […] After 1 h (grey bars) groups of mice were treated with 3% AWD 12-281, 10% cilomilast or left untreated (TDI). After 24 h, ear swelling was determined (black bars). […] Female BALB/c-mice were obtained from Charles River (Sulzfeld, Germany) at the age of 8 weeks (20 g body weight). All animals were healthy and were housed in groups of six mice per cage at 22° C. with a 12-h light/dark-cycle. Water and a standard diet (Altromin, […], Germany) were available ad libitum. After settling in for 1 week, the abdominal skin of the mice was shaved and depilated with Veet®. Subsequently, the horny layers of the abdominal skin were stripped off ten times with adhesive tapes. […] Before as well as 24 h after challenge, the ear thickness was measured with a cutimeter (model 7309, Mitutoyo, Neuss, Germany) The swelling was calculated by comparison of the values before challenge with 24 h after challenge. […] The other mice were equally distributed to the treatment groups (n=6) according to their swelling intensity, so that each group contained animals which had responded to varying extents. They had to rest until the ear thickness had reached almost a normal level after 7 days. To exclude residues of the allergen on the ears, the untreated right ears were used for the main experiment. One group of mice (n=6) was not sensitized and challenged. […] Two hours before TDI-challenge, the third and fourth group (each n=6) were treated with 20 μl (10 μl on both, the inner and outer surface) AWD 12-281 (1%=200 μg) or 20 μl cilomilast (3%=600 μg; each in acetone/DMSO 9:1) to the right ears. […] These mice were sacrificed by cervical dislocation 24 hours after TDI challenge and the ears were collected (see below). […] Five weeks after the first challenge, the animals treated with AWD 12-281 (1%) and cilomilast (3%) “therapeutically” were challenged again. Before challenge, one group was treated with AWD 12-281 (3%).

[1] = test system: macrophage inflammatory protein 2; assay: MIP-2 in homogenized mouse ears after TDI challenge (ELISA); assay type: in vivo, BALB/c-mice; conditions: 24 h after TDI challenge, cilomilast 3%, diflorasone 0.05%; for concentration of macrophage inflammatory protein 2 in homogenized mouse ears: topical 2 h before challenge, AWD 12-281 1%; for MIP-2, mean inhibition (%) of the TDI induced synthesis: AWD 12-281 3%
Protocol: (§1) One part of the collected ears was fixed in 4% formaldehyde for histological section and stained with haematoxylin-eosin with respect to dermal thickness and granulocyte accumulation. These parameters were measured in 10 fields at 40 times magnification. The remaining tissue was shock-frozen and stored in liquid nitrogen immediately after sampling. For the determination of biochemical parameters, the mice ears were homogenized under liquid nitrogen. The homogenates were taken in 200 μl RPMI 1640 medium and the protease inhibitor Pefabloc® (1 mmol) was added and the samples were mixed intensively. After centrifugation (10000 g, 10 min, 4° C.), the supernatant was collected and the protein content was determined. The samples were stored at −80° C. until the cytokines were determined. Interleukin (IL) 4, IL-6 and MIP-2 were measured in the samples by ELISA using commercially available kits according to manufacturers instructions.

[2] = test system: granulocyte influx in the dermis of mice ears; assay: Histological examination of mouse ear skin after TDI challenge; assay type: in vivo, BALB/c-mice; conditions: mouse ear skin 24 h after TDI challenge; topical treatment
Protocol: as §1

interleukin 4 = assay: IL-4 in homogenized mouse ears after TDI challenge (ELISA); assay type: in vivo, BALB/c-mice; conditions: 24 h after TDI challenge, cilomilast 3%, diflorasone 0.05%; for concentration of interleukin 4 in homogenized mouse ears: topical 2 h before challenge, AWD 12-281 1%; for IL-4, mean inhibition (%) of the TDI induced synthesis: AWD 12-281 3%
Protocol: as §1

[3] = test system: chronic obstructive pulmonary disease; conditions: Phase II/III clinical trials; Giembycz, 2001, Dyke & Montana, 2002; cited from earlier work
IL-4 = conditions: Griswold et al., 1998; cited from earlier work
interleukin 6 = assay: IL-6 in homogenized mouse ears after TDI challenge (ELISA); assay type: in vivo, BALB/c-mice; conditions: 24 h after TDI challenge, cilomilast 3%, diflorasone 0.05%; for concentration of interleukin 6 in homogenized mouse ears: topical 2 h before challenge, AWD 12-281 1%; for IL-6, mean inhibition (%) of the TDI induced synthesis: AWD 12-281 3%
Protocol: as §1

[4] = single topical application 2 h before TDI challenge, 1, 5 and 24 h after challenge
[5] = topical 1 h after TDI challenge (therapeutic), 24 h after challenge

| MIP-2, mean inhibition (%) of the TDI induced synthesis [1] | IL-4, mean inhibition (%) of the TDI induced synthesis (interleukin 4) | IL-6, mean inhibition (%) of the TDI induced synthesis (interleukin 6) | Compound | TDI-induced ear swelling (mice sensitized to TDI; [4]) | TDI-induced ear swelling (mice sensitized to TDI; [5]) | TDI-induced ear swelling (mice sensitized to TDI; topical 1 h after TDI challenge (therapeutic), 24 h after challenge, listed as Cilomilast) | TDI induced ear swelling (mice sensitized to TDI; treated 1 h after 0.5% TDI, 3% AWD 12-281, 10% cilomilast, ear swelling after 24 h (FIG. 6)) | concentration of macrophage inflammatory protein 2 in homogenized mouse ears [1] | concentration of macrophage inflammatory protein 2 in homogenized mouse ears ([1]; listed as Cilomilast) | edema and influx of inflammatory cells (mainly granulocytes) [2] | concentration of interleukin 4 in homogenized mouse ears (interleukin 4) | concentration of interleukin 4 in homogenized mouse ears (interleukin 4; listed as Cilomilast) | lung function [3] | IL-4 in vivo (IL-4) | concentration of interleukin 6 in homogenized mouse ears (interleukin 6) | concentration of interleukin 6 in homogenized mouse ears (interleukin 6; listed as Cilomilast) |
| --- | --- | --- | --- | --- | --- | --- | --- | --- | --- | --- | --- | --- | --- | --- | --- | --- |
| 66% | 74% | 49% | COc1ccc([C@]2(C#N)CC[C@@H](C(=O)O)CC2)cc1OC1CCCC1 [cilomilast] | inhibited the TDI-induced swelling significantly at all measured times | lacks significant inhibitory effects; also recorded: failed to do so | no significant inhibition; also recorded: slight, but not significant reduction of the swelling | did not show a significant inhibitory effect | diminished the increase of the MIP-2 concentration significantly | reduced the concentration of all mediators significantly | inhibited these inflammatory processes markedly | inhibited the increase significantly | reduced the concentration of all mediators significantly | clinically significant increase in lung function | inhibit IL-4 in vivo | inhibited this response significantly | reduced the concentration of all mediators significantly |
| 76% | 50% | 52% | CC(=O)OCC(=O)[C@@]1(OC(C)=O)[C@@H](C)C[C@H]2[C@@H]3C[C@H](F)C4=CC(=O)C=C[C@]4(C)[C@@]3(F)[C@@H](O)C[C@@]21C [diflorasone, reference compound] | inhibited the TDI-induced swelling significantly at all measured times | inhibited the TDI induced ear swelling significantly | – | – | reduced the concentration of all mediators significantly; also recorded: diminished the increase of the MIP-2 concentration significantly | – | inhibited these inflammatory processes markedly | reduced the concentration of all mediators significantly; also recorded: inhibited the increase significantly | – | – | – | reduced the concentration of all mediators significantly; also recorded: inhibited this response significantly | – |

From patent US20040038958A1, “Topical treatment of skin diseases” (priority 2002, published 2004)
